Tests used:
μ-calpain = target: T1, μ-calpain (Homo sapiens, UniProt P07384); format: biochemical; details: bacterially expressed ICA512 (601-979), 50 μM Ca2+, 30 μM inhibitor
T1 sequence (P07384 1-714): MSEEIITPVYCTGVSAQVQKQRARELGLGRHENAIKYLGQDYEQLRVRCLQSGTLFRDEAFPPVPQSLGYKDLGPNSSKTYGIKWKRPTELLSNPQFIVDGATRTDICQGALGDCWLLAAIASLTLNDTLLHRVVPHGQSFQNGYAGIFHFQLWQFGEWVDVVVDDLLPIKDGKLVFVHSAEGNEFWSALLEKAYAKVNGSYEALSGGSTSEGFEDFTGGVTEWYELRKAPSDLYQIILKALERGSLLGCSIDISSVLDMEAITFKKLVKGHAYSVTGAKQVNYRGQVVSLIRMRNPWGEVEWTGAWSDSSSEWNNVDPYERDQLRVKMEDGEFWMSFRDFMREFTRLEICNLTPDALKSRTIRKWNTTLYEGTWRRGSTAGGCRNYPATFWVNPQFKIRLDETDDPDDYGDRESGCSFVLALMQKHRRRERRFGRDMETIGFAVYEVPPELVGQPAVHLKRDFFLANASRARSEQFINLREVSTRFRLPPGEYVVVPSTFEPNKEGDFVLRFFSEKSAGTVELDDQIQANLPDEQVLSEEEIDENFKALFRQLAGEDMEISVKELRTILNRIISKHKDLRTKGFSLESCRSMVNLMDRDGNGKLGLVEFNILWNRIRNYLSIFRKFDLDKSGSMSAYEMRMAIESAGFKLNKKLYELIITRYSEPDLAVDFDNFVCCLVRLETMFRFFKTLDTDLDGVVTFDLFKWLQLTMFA
T1 sequence (P04632 1-268 partner): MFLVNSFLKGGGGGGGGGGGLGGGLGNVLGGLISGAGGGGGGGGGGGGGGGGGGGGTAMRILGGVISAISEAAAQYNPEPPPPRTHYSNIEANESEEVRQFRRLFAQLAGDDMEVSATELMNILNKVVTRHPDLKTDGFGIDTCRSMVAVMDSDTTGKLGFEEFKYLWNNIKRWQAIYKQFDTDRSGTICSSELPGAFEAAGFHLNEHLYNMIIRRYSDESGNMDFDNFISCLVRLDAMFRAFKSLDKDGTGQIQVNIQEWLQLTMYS
Experimental: In-vitro μ-calpain cleavage. 3 μg bacterially expressed His-ICA512 cytoplasmic domain (residues 601-979) (Ort et al., 2001) were incubated in 20 μl buffer (20 mM Tris-HCl pH 7.5, 50 μM CaCl2, 1 mM L-cysteine) at room temperature with or without 150 ng μ-calpain (Calbiochem) and 30 μM calpeptin or MG-132 for 1, 5, 15 or 45 minutes. The reactions were stopped by addition of an equal volume of 2×SDS sample buffer. Following SDS-PAGE, proteins were stained with Coomassie Blue (Bio-Rad).

INS-1 cells = experiment: Nuclear levels of ICA512-CCF-GFP in INS-1 cells (nuclear extracts, confocal imaging); format: cell-based, rat; details: ICA512-GFP INS-1 cells; 60 μM calpeptin
Experimental: Cell extracts and western blotting. Wild type and transfected INS-1 cells and rat pancreatic islets (350-450) were pre-incubated for 60 minutes in resting buffer containing 0 mM glucose and 5 mM KCl and then incubated for various times in fresh resting or stimulating buffer including 25 mM glucose and 55 mM KCl, as previously described (7). The protease inhibitors calpeptin, MG-132, L-685,458 (Calbiochem, La Jolla, Calif.) were added in the last 15 minutes of the pre-incubation, and then for the entire following period before cells were harvested. Next, the cells were washed with ice cold PBS, and extracted in lysis buffer (10 mM Tris-HCl at pH 8.0, 140 mM NaCl, 1% Triton X-100, 1 mM EDTA, 1 mM PMSF, and 1% protease inhibitor cocktail (Sigma, St. Louis, Mo.) at 4° C. Cytosolic and nuclear extracts were prepared using the NE-PER Nuclear and Cytoplasmic Extraction Reagents (Pierce, Rockford, Ill.) in accordance with the manufacturer's instructions. Protein concentration was measured using the Bio-Rad Protein Assay Reagent (Bio-Rad, Hercules, Calif.). Equivalent amount of protein was separated by 8-10% SDS-PAGE, except for nuclear extracts, in which case half of the protein were loaded compared to the corresponding cytosolic extracts. […] Quantitation of protein signals was performed with the Image Gauge v3.45 software (Fuji). […]

## CCCC[C@@H](C=O)NC(=O)[C@H](CC(C)C)NC(=O)OCc1ccccc1 [calpeptin]
μ-calpain
  Cleavage by μ-calpain: inhibited
INS-1 cells
  enrichment of 55 kD ICA512-CCF-GFP in nuclear fractions of stimulated cells: in a calpeptin-sensitive manner

From patent US20090131309A1, “ICA512 COUPLES INSULIN SECRETION AND GENE EXPRESSION IN BETA-CELLS” (Technische Universität Dresden Medizinizche Fakultät Carl …, priority 2004, published 2009)
